Data from ChEMBL document CHEMBL4507300 (2021).

Legend:
[1] = target: Macrophage colony-stimulating factor 1 receptor (Homo sapiens) (UniProt P07333); details: Compound concentration 1000.0 nM
[2] = target: Casein kinase I isoform epsilon (Homo sapiens) (UniProt P49674); details: Compound concentration 1000.0 nM
[3] = target: Membrane-associated tyrosine- and threonine-specific cdc2-inhibitory kinase (Homo sapiens) (UniProt Q99640); details: Compound concentration 1000.0 nM
[4] = target: Activated CDC42 kinase 1 (Homo sapiens) (UniProt Q07912); details: Compound concentration 1000.0 nM
[5] = target: Ribosomal protein S6 kinase alpha-2 (Homo sapiens) (UniProt Q15349); details: Compound concentration 1000.0 nM
[6] = tested on: Mast/stem cell growth factor receptor Kit (Homo sapiens), P10721 [D816H]; details: Compound concentration 1000.0 nM
[7] = tested on: Phosphatidylinositol 4,5-bisphosphate 3-kinase catalytic subunit alpha isoform (Homo sapiens), P42336 [E545A]; details: Compound concentration 1000.0 nM
[8] = target: Dual specificity protein kinase CLK2 (Homo sapiens) (UniProt P49760); details: Compound concentration 1000.0 nM
[9] = target: Phosphatidylinositol 4,5-bisphosphate 3-kinase catalytic subunit alpha isoform (Homo sapiens) (UniProt P42336); details: Compound concentration 1000.0 nM
[10] = target: SRSF protein kinase 3 (Homo sapiens) (UniProt Q9UPE1); details: Compound concentration 1000.0 nM
[11] = target: Ribosomal protein S6 kinase alpha-3 (Homo sapiens) (UniProt P51812); details: Compound concentration 1000.0 nM
[12] = target: Casein kinase I isoform gamma-2 (Homo sapiens) (UniProt P78368); details: Compound concentration 1000.0 nM
[13] = target: Mitogen-activated protein kinase 3 (Homo sapiens) (UniProt P27361); details: Compound concentration 1000.0 nM
[14] = tested on: ALK tyrosine kinase receptor (Homo sapiens), Q9UM73 [C1156Y]; details: Compound concentration 1000.0 nM
[15] = target: Mitogen-activated protein kinase 11 (Homo sapiens) (UniProt Q15759); details: Compound concentration 1000.0 nM
[16] = target: Serine/threonine-protein kinase 33 (Homo sapiens) (UniProt Q9BYT3); details: Compound concentration 1000.0 nM
[17] = tested on: Mast/stem cell growth factor receptor Kit (Homo sapiens), P10721 [V559D,V654A]; details: Compound concentration 1000.0 nM
[18] = tested on: Serine/threonine-protein kinase B-raf (Homo sapiens), P15056 [V600E]; details: Compound concentration 1000.0 nM
[19] = target: Phosphatidylinositol 4,5-bisphosphate 3-kinase catalytic subunit delta isoform (Homo sapiens) (UniProt O00329); details: Compound concentration 1000.0 nM
[20] = target: Tyrosine-protein kinase Yes (Homo sapiens) (UniProt P07947); details: Compound concentration 1000.0 nM
[21] = target: Ribosomal protein S6 kinase alpha-4 (Homo sapiens) (UniProt O75676); details: Compound concentration 1000.0 nM
[22] = target: Phosphorylase b kinase gamma catalytic chain, skeletal muscle/heart isoform (Homo sapiens) (UniProt Q16816); details: Compound concentration 1000.0 nM
[23] = tested on: Epidermal growth factor receptor (Homo sapiens), P00533 [L858R,T790M]; details: Compound concentration 1000.0 nM
[24] = target: Calcium/calmodulin-dependent protein kinase type 1B (Homo sapiens) (UniProt Q6P2M8); details: Compound concentration 1000.0 nM
[25] = target: Calcium/calmodulin-dependent protein kinase type 1D (Homo sapiens) (UniProt Q8IU85); details: Compound concentration 1000.0 nM
[26] = target: Sodium-dependent noradrenaline transporter (Homo sapiens) (UniProt P23975); details: Compound concentration 10.0 uM
[27] = target: Serine/threonine-protein kinase MARK1 (Homo sapiens) (UniProt Q9P0L2); details: Compound concentration 1000.0 nM
[28] = target: Serine/threonine-protein kinase 32B (Homo sapiens) (UniProt Q9NY57); details: Compound concentration 1000.0 nM
[29] = target: Serine/threonine-protein kinase 17B (Homo sapiens) (UniProt O94768); details: Compound concentration 1000.0 nM
[30] = target: 5-hydroxytryptamine receptor 1E (Homo sapiens) (UniProt P28566); details: Compound concentration 10.0 uM
[31] = target: Serine/threonine-protein kinase 3 (Homo sapiens) (UniProt Q13188); details: Compound concentration 1000.0 nM
[32] = target: Receptor-type tyrosine-protein kinase FLT3 (Homo sapiens) (UniProt P36888); details: Compound concentration 1000.0 nM
[33] = target: Cyclin-dependent kinase 7 (Homo sapiens) (UniProt P50613); details: Compound concentration 1000.0 nM
[34] = tested on: Mast/stem cell growth factor receptor Kit (Homo sapiens), P10721 [D816V]; details: Compound concentration 1000.0 nM
[35] = target: LIM domain kinase 2 (Homo sapiens) (UniProt P53671); details: Compound concentration 1000.0 nM
[36] = target: Tyrosine-protein kinase Blk (Homo sapiens) (UniProt P51451); details: Compound concentration 1000.0 nM
[37] = target: Non-receptor tyrosine-protein kinase TYK2 (Homo sapiens) (UniProt P29597); details: Compound concentration 1000.0 nM
[38] = tested on: Proto-oncogene tyrosine-protein kinase receptor Ret (Homo sapiens), P07949 [M918T]; details: Compound concentration 1000.0 nM
[39] = target: Cyclin-dependent kinase 4 (Homo sapiens) (UniProt P11802); details: Compound concentration 1000.0 nM
[40] = target: Serine/threonine-protein kinase D2 (Homo sapiens) (UniProt Q9BZL6); details: Compound concentration 1000.0 nM
[41] = target: Serine/threonine-protein kinase tousled-like 2 (Homo sapiens) (UniProt Q86UE8); details: Compound concentration 1000.0 nM
[42] = target: Mast/stem cell growth factor receptor Kit (Homo sapiens) (UniProt P10721); details: Compound concentration 1000.0 nM
[43] = target: cAMP-dependent protein kinase catalytic subunit alpha (Homo sapiens) (UniProt P17612); details: Compound concentration 1000.0 nM
[44] = target: Serine/threonine-protein kinase SIK1 (Homo sapiens) (UniProt P57059); details: Compound concentration 1000.0 nM
[45] = target: Histamine H2 receptor (Homo sapiens) (UniProt P25021); details: Compound concentration 10.0 uM

Sequence of Serine/threonine-protein kinase B-raf (Homo sapiens), P15056 [V600E] (P15056 whole entry V600E, canonical isoform): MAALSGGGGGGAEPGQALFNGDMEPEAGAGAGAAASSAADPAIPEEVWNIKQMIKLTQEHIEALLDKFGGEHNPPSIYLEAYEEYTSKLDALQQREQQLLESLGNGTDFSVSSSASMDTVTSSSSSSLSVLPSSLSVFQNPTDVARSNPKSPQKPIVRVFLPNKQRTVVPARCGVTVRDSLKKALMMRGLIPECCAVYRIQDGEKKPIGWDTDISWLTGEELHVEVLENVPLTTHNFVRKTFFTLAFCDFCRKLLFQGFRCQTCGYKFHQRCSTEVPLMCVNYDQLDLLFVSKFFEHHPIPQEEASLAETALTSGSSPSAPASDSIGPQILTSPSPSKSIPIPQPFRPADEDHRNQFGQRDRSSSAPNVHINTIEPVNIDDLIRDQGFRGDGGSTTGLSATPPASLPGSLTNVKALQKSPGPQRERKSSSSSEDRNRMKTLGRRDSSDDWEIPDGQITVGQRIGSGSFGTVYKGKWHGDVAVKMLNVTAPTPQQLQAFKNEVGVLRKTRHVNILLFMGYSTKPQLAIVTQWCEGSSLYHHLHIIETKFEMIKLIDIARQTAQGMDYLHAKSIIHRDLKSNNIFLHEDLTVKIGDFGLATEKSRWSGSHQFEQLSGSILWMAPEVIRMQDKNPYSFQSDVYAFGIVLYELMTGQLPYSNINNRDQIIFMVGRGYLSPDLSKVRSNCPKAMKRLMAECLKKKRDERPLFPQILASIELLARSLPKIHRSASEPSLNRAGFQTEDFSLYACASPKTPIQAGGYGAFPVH
Sequence of Serine/threonine-protein kinase D2 (Homo sapiens) (Q9BZL6 whole entry): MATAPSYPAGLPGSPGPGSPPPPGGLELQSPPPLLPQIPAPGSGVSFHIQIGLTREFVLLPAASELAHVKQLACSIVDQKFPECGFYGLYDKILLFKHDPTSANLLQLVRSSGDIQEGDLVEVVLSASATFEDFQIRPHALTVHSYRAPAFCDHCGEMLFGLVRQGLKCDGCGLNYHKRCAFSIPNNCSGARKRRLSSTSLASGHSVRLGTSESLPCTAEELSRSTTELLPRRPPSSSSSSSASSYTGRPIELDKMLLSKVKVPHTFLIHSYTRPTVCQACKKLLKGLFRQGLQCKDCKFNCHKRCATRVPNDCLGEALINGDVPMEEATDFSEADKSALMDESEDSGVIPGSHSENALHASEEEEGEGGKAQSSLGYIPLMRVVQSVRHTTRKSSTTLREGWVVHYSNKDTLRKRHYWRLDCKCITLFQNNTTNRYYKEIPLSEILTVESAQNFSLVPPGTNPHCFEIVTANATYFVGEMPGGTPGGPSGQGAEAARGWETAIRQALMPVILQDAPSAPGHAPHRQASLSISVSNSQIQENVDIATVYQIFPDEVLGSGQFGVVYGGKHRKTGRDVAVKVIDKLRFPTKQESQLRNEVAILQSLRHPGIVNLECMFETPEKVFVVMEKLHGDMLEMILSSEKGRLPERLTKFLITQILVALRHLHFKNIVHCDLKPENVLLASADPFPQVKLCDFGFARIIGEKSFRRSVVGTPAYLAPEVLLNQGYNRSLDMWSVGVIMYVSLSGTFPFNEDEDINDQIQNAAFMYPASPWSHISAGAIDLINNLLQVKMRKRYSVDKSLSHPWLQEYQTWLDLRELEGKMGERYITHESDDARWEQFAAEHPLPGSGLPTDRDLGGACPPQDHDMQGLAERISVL
Sequence of Serine/threonine-protein kinase SIK1 (Homo sapiens) (P57059 whole entry): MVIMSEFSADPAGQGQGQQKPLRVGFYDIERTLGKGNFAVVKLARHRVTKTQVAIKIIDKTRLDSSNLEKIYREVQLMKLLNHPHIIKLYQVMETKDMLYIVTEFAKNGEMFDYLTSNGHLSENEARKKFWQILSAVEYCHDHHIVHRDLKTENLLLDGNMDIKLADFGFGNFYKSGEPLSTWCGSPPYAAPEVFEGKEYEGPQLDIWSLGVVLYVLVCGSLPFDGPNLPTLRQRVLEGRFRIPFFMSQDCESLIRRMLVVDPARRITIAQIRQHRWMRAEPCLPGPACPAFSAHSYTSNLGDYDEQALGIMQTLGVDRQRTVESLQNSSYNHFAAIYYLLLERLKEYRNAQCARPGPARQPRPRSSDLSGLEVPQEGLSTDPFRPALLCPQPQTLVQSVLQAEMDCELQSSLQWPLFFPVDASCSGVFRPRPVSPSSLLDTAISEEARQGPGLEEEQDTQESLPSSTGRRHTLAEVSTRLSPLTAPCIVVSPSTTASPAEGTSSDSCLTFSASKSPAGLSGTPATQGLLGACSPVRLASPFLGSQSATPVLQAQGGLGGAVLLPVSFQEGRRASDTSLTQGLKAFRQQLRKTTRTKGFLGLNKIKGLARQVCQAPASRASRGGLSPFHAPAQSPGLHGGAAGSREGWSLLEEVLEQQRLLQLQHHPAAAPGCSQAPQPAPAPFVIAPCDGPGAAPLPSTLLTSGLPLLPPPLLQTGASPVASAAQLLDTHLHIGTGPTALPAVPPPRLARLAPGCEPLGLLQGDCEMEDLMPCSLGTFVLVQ
Sequence of Ribosomal protein S6 kinase alpha-3 (Homo sapiens) (P51812 whole entry, canonical isoform): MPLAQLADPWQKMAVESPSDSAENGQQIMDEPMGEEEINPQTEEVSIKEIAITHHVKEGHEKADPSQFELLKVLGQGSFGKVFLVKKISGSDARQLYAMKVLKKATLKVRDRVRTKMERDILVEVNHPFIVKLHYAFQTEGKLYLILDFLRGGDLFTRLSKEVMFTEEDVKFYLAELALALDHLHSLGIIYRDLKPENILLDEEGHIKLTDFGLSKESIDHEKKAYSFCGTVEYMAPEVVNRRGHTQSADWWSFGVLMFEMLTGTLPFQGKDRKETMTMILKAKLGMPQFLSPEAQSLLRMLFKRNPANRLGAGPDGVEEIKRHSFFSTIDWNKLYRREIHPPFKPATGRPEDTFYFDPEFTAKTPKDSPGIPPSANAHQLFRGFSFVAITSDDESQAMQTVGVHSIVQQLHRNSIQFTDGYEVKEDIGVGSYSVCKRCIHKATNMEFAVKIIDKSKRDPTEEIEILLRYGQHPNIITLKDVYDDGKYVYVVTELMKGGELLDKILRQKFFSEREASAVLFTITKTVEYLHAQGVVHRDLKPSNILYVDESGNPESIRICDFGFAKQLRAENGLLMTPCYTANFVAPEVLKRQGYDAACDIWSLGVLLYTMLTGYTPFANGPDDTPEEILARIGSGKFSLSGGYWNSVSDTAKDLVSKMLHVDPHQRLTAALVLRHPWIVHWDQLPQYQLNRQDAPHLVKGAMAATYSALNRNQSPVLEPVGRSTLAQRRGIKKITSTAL
Sequence of Tyrosine-protein kinase Yes (Homo sapiens) (P07947 2-543 limits assumed): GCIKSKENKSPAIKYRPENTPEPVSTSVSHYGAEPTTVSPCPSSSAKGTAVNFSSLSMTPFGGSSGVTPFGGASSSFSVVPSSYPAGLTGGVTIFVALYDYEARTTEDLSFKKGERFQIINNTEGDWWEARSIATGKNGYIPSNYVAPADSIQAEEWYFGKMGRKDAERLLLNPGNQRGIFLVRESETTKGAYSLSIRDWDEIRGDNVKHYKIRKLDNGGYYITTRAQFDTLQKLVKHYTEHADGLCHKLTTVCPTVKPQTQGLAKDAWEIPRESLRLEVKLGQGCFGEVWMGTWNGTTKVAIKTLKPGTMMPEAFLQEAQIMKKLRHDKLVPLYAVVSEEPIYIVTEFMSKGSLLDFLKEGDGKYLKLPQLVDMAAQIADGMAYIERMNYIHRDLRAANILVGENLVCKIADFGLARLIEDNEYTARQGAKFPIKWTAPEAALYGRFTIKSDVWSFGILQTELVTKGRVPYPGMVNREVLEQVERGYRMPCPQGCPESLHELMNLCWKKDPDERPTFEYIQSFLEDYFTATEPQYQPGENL
Sequence of Serine/threonine-protein kinase MARK1 (Homo sapiens) (Q9P0L2 whole entry, looked up): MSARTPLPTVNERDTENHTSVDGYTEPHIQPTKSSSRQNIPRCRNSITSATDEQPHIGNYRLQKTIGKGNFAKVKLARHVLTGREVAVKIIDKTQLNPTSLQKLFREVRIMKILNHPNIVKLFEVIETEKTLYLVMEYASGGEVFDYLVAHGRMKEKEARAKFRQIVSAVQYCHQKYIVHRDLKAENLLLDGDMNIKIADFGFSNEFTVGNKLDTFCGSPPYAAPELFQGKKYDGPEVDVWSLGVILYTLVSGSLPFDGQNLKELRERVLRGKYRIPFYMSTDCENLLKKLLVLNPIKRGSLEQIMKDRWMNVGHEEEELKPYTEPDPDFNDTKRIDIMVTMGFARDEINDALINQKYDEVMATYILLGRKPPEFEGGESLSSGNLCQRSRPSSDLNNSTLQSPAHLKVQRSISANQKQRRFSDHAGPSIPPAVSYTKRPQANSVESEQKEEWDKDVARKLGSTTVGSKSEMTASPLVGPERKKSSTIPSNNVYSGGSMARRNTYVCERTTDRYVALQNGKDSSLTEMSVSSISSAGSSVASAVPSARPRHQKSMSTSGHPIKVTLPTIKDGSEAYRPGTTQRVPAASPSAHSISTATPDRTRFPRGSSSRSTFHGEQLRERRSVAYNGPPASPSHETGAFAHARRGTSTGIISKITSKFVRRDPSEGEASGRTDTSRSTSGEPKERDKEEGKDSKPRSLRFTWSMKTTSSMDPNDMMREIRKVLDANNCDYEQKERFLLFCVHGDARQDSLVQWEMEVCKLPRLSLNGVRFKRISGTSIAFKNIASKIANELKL
Sequence of Serine/threonine-protein kinase 32B (Homo sapiens) (Q9NY57 whole entry): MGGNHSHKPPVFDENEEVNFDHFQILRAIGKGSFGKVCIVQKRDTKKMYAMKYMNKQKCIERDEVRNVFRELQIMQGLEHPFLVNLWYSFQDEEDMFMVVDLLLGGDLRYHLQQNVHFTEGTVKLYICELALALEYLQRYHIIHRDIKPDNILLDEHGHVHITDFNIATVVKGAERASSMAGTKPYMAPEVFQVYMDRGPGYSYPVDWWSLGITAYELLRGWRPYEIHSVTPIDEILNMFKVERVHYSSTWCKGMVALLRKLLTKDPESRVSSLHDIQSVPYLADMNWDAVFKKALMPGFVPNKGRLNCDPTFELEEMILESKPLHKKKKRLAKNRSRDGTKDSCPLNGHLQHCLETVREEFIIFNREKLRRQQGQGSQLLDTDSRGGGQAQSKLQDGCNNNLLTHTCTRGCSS

COc1cccc(CNC(=O)c2nc3scc(COCc4ccc(C(=O)O)cc4)c3c(=O)[nH]2)c1 [T-26c]
inactive: residual activity [1] 100% | residual activity [2] 100% | residual activity [3] 88% | residual activity [4] 89.6% | residual activity [5] 100% | residual activity [6] 59% | residual activity [7] 89.2% | residual activity [8] 92.4% | residual activity [9] 78.8% | residual activity [10] 70.1% | residual activity [11] 100% | residual activity [12] 97.2% | residual activity [13] 100% | residual activity [14] 100% | residual activity [15] 100% | residual activity [16] 100% | residual activity [17] 98% | residual activity [18] 79.8% | residual activity [19] 85.7% | residual activity [20] 85.2% | residual activity [21] 100% | residual activity [22] 100% | residual activity [23] 58.6% | residual activity [24] 70.7% | residual activity [25] 100% | inhibition [26] 12.6% | residual activity [27] 96.7% | residual activity [28] 93.4% | residual activity [29] 94.4% | inhibition [30] -0.179% | residual activity [31] 100% | residual activity [32] 85% | residual activity [33] 80.5% | residual activity [34] 100% | residual activity [35] 96.2% | residual activity [36] 100% | residual activity [37] 95% | residual activity [38] 89.5% | residual activity [39] 91.1% | residual activity [40] 100% | residual activity [41] 100% | residual activity [42] 93% | residual activity [43] 100% | residual activity [44] 100% | inhibition [45] 28.4%
